Experimental data from ChEMBL document CHEMBL1144040, “Inhibitors of anthrax lethal factor based upon N-oleoyldopamine” (Bioorg Med Chem Lett, 2008).
Active and inactive are the calls of the source. The rule behind the calls is not given here.

Legend:
[1] = target: T1, Lethal factor (Bacillus anthracis) (UniProt P15917); experiment: Inhibition of Bacillus anthracis lethal factor up to 100 uM by FRET assay
T1 sequence (whole entry): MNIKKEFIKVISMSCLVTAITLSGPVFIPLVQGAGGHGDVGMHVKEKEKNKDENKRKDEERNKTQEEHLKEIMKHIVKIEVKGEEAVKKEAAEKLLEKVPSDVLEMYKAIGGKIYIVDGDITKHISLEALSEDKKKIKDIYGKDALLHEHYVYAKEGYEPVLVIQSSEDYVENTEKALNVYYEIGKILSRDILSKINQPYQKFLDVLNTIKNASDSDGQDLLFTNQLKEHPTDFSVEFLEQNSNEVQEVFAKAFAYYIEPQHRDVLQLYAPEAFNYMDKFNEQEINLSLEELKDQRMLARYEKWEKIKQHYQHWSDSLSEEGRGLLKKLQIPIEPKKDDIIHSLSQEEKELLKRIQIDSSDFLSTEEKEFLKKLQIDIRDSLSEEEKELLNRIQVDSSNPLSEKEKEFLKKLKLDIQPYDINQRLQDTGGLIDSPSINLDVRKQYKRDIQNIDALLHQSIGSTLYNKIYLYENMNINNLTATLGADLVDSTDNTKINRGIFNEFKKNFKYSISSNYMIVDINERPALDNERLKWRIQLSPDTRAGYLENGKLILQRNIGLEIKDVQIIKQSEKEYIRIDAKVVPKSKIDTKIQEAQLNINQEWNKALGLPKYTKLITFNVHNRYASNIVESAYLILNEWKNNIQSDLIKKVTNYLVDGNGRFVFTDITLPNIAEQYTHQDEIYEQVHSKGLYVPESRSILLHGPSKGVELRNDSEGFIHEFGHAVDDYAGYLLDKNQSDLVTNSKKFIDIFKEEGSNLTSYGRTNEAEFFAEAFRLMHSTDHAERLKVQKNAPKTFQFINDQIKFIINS

Lethal factor [2] = target: T2, Lethal factor (Bacillus anthracis, UniProt P15917); experiment: Inhibition of Bacillus anthracis lethal factor by FRET assay
T2 sequence (P15917 whole entry): T1 sequence (whole entry)

Lethal factor [3] = target: T2, Lethal factor; experiment: Inhibition of Bacillus anthracis lethal factor by cell-based assay
J774.A1 = experiment: Inhibition of lethal factor induced toxicity in mouse J774A.1 macrophages after 4 hrs by MTT assay; assay type: functional, cell-based; details: J774.A1, 4 h

SMILES	Activity [1]	Ki (Lethal factor [2])	IC50 (Lethal factor [3])	IC50 (J774.A1)
CCCCCC(=O)NCCc1ccc(O)c(O)c1	inactive			
CCCCCCCC/C=C\CCCCCCCC(=O)NCc1ccc(C(=O)NO)cc1		6.2 µM	42 µM	
CCCCCCCCCCCCCCCCCC(=O)NCCc1ccc(O)c(O)c1	inactive			
CCCCCCCC/C=C\CCCCCCCC(=O)NCc1ccc(O)c(O)c1		2.2 µM	15 µM	4.3 µM
CCCCCCCC/C=C/CCCCCCCC(=O)NCCc1ccc(O)c(O)c1	inactive			
